Assay results from publication PMC9241669, “Allantodapsone is a Pan-Inhibitor of Staphylococcus aureus Adhesion to Fibrinogen, Loricrin, and Cytokeratin 10” (Microbiology Spectrum, 2022).
pIC50: −log10 of the molar value. Several values for one entry are separate records, joined by “and”; a condition that tells them apart may be missing. Identical values can stand only once. Like-named read-outs stand apart in the source and are kept apart here.

Key:
S. aureus SH1000 = assay: Adhesion of S. aureus SH1000 to immobilized fibrinogen (crystal violet); assay type: cell-based, Staphylococcus aureus; settings: for pIC50: Staphylococcus aureus
Method: (§1) FIG 2 Allantodapsone inhibits S. aureus adhesion to fibrinogen. (A) S. aureus Newman stationary phase and (B) exponential phase. (C) S. aureus SH1000 stationary phase and (D) exponential phase bacteria. Fibrinogen was used to coat plates at 4°C overnight at 10 μg/mL. Wells were washed with PBS and blocked with 1% BSA. Washed bacteria (OD600 of 1) were mixed with the relevant concentration of allantodapsone or vehicle control for 5 min, and added to the wells, incubating for 2 h at 37°C. Adherent cells were washed, fixed, and stained with crystal violet, and wells further washed. The dye was dissolved in acetic acid and the absorbance measured at 570 nm. Compounds were screened at a concentration of 70 μM and compared to their vehicle control. Statistical analysis was carried out using repeated measures ANOVA followed by multiple comparisons Dunnett’s tests using GraphPad PRISM. **, P ≤ 0.01; ***, P ≤ 0.001; ****, P ≤ 0.0001 (n = 3).
(§2) Adhesion assays were carried out according to Hartford et al. ([37]). Briefly, plates were coated with 10 μg/mL fibrinogen (Calbiochem, Darmstadt, Germany) or 20 μg/mL fibronectin (Sigma-Aldrich, Ireland) for 2 h at 37°C or for 16 h at 4°C. Plates were blocked with 1% BSA at 37°C for 1 h and washed 3 times in PBS. Washed bacteria were incubated at 37°C for 2 h. Adherent bacteria were washed three times in PBS and fixed in 5–9% formaldehyde at room temperature for 30 min. Wells were washed three times in PBS and stained using 5% crystal violet for 20 min. Wells were washed three times in PBS, and the crystal violet solubilized using 5% acetic acid. Plates were read at 570 nm on a Wallac Victor2, (Shelton, CT, USA). The minimum adhesion inhibitory concentration (MAIC) was determined as the concentration inhibiting greater than 90% bacterial adhesion.
(§3) Compounds were added to the bacterial suspension prior to addition to the wells. In each experiment, vehicle controls were prepared using the same volume of vehicle for the matching test compound.

S. aureus Newman = assay: Adhesion of S. aureus Newman to immobilized fibrinogen (crystal violet); assay type: cell-based, Staphylococcus aureus
Method: (§4) FIG 1 Allantodapsone inhibits S. aureus Newman adhesion to fibrinogen. Dose response curves for S. aureus Newman (A), L. lactis ClfA (B), and L. lactis ClfB (C) adhesion to fibrinogen. Fibrinogen was used to coat plates at 4°C overnight at 10 μg/mL. Wells were washed with PBS and blocked with 1% BSA. Washed bacteria (OD600 of 1) were mixed with the relevant concentration of allantodapsone or vehicle control (DMSO) for 5 min, and added to the wells, incubating for 2 h at 37°C. Adherent cells were washed, fixed, and stained with crystal violet, and wells further washed. The dye was dissolved in acetic acid and the absorbance measured at 570 nm. IC50 values were generated using GraphPad Prism 9.0 GraphPad software, San Diego, CA. Data are representative of three experiments with error presented as SEM.
as §1, §2, §3

L. lactis ClfB = assay: Adhesion of L. lactis ClfB to immobilized fibrinogen; assay type: cell-based, Lactococcus lactis
Method: as §4
(§5) Adhesion assays were carried out according to Hartford et al. ([37]). Briefly, plates were coated with 10 μg/mL fibrinogen (Calbiochem, Darmstadt, Germany) or 20 μg/mL fibronectin (Sigma-Aldrich, Ireland) for 2 h at 37°C or for 16 h at 4°C. Plates were blocked with 1% BSA at 37°C for 1 h and washed 3 times in PBS. Washed bacteria were incubated at 37°C for 2 h. […] Plates were read at 570 nm on a Wallac Victor2, (Shelton, CT, USA). The minimum adhesion inhibitory concentration (MAIC) was determined as the concentration inhibiting greater than 90% bacterial adhesion. […]

U-937 cells = assay type: cell-based, human; settings: 100 μM, undifferentiated U-937 monocyte cells, n=2, preliminary
Method: V. Microbiology: Materials and Methods
The MTT toxicity assay (1) (Vybrant MTT Cell Proliferation Assay, Molecular Probes, Or, USA) was used to measure cytotoxicity. Myeloid lineage, U-937 cells (2) were grown in RPMI-1640 (Gibco) culture medium supplemented with 10% foetal calf serum, 1% L-glutamine and 1% Penicillin/Streptomycin (Gibco). U-937 cells were centrifuged and cells diluted with fresh medium containing 1.2 mM MTT solution to a concentration of (5-6 x 10^6 per mL) and incubated at 37 °C for 2 h. Cells were centrifuged and the pellet dissolved in DMSO. The absorbance was read at 490 nm using the Wallac Victor2, (Shelton, Connecticut, USA).
Platelet aggregation was performed in platelet rich plasma according to O’Brien et al.
S. aureus Newman (stationary phase) was washed and diluted to an OD600 of 2.5.
This was mixed with 10 mg/mL of fibrinogen in 1:1 ratio resulting in a final concentration 5 mg/mL fibrinogen. Fibrinogen -bacteria aggregates clump and settle at the bottom of the tube resulting in a clear solution. These were compared to the turbid bacterial suspension in buffer by visual inspection. […]
was tested for toxicity using the MTT assay (VybrantTM MTT Cell Proliferation Assay, Molecular Probes, OR, USA). 10% DMSO is used as a positive control in this assay.
Allantodapsone was incubated with undifferentiated U-937 monocyte cells at 100
µM. […]

L. lactis ClfA = assay: Adhesion of L. lactis ClfA to immobilized fibrinogen; assay type: cell-based, Lactococcus lactis
Method: as §4, §5

[1] = Lactococcus lactis, read-out: IC50, inhibition of adhesion to fibrinogen

Which “inhibition of adhesion to fibrinogen” value (S. aureus SH1000; S. aureus SH1000, stationary and exponential phase, compounds screened at 70 μM (Fig. 2)) does the source give for Nc1ccc(S(=O)(=O)c2ccc(NCN3C(=O)NC(=O)C(=O)C3=O)cc2)cc1 [Allantodapsone] here?
Its value is “inhibited”.

What about the pIC50 (S. aureus SH1000; SH1000, read-out: IC50, inhibition of adhesion to fibrinogen, S. aureus SH1000 exponential phase) of the same molecule?
The pIC50 was 4.81.

What about the pIC50 (S. aureus SH1000; SH1000, read-out: IC50, inhibition of adhesion to fibrinogen, S. aureus SH1000 stationary phase) of the same molecule?
Its pIC50 is 5.12.

And the “minimum adhesion inhibitory concentration (MAIC)” value (S. aureus Newman; S. aureus Newman stationary phase, concentration inhibiting greater than 90% adhesion to fibrinogen)?
Its value is 100 μM and 40.2 μg/mL.

What about the “inhibition of adhesion to fibrinogen” value (S. aureus Newman; S. aureus Newman, stationary and exponential phase, compounds screened at 70 μM (Fig. 2)) of the same molecule?
Its value is “inhibited”.

What about the pIC50 (S. aureus Newman; Staphylococcus aureus, NEWMAN, read-out: IC50, inhibition of adhesion to fibrinogen, S. aureus Newman exponential phase) of the same molecule?
Its pIC50 is 4.48.

What about the pIC50 (S. aureus Newman; Staphylococcus aureus, NEWMAN, read-out: IC50, inhibition of adhesion to fibrinogen, S. aureus Newman stationary phase, fibrinogen 10 μg/mL) of the same molecule?
Its pIC50 is 4.64.

What about the pIC50 (S. aureus Newman; read-out: IC50, inhibition of adhesion to fibrinogen, S. aureus Newman stationary phase, fibrinogen 10 μg/mL) of the same molecule?
Its pIC50 is 4.67.

What about the “minimum adhesion inhibitory concentration (MAIC)” value (L. lactis ClfB; L. lactis ClfB, fibrinogen) of the same molecule?
Its value is 33 μM and 13.3 μg/mL.

What about the pIC50 (L. lactis ClfB; [1]) of the same molecule?
The pIC50 was 4.96.

And the “toxic effect on human cells, MTT (words)” value (U-937 cells)?
The value was “no toxic effect”.

What about the “toxic effect on human cells, MTT (words)” value (U-937 cells; listed as allantodapsone) of the same molecule?
The value was “no toxic effects”.

What about the “minimum adhesion inhibitory concentration (MAIC)” value (L. lactis ClfA; L. lactis ClfA, fibrinogen) of the same molecule?
The value was 10 μM and 4.0 μg/mL.

What about the pIC50 (L. lactis ClfA; [1]) of the same molecule?
The pIC50 was 5.42.
